Assay results as given in ChEMBL document CHEMBL1150293, “The pyridoxamine action on Amadori compounds: A reexamination of its scavenging capacity and chelating effect” (Bioorg Med Chem, 2008).

Test: Aqueous stability assessed as half life at pH 7.4 by HPLC
Assay type: physicochemical
Conditions: aqueous solution

Work on `O=C(CN1CCOCC1)[C@@H](O)[C@H](O)[C@H](O)CO` yielded a half-life of 92 h.
Work on `O=C(CN[C@H](Cc1c[nH]c2ccccc12)C(=O)O)[C@@H](O)[C@H](O)[C@H](O)CO` yielded a half-life of 25 h.
